# Test results reported in patent publication US9682928B2 (NeuroPro Therapeutics, Inc., priority 2009, dated 2017).
# Values joined by “and” are separate entries in the source; they are usually repeats but may differ in a detail not shown here. Identical values can stand only once.
# Columns and labels:
# [1] = target: T1, α1β3γ2 GABAA receptor isoform (Homo sapiens, UniProt P14867+P18507+P28472); assay: Whole-cell patch clamp, transfected HEK-293T cells; assay type: cell-based, rat or human; details: FIG. 36
# T1 construct: expressed in transfected cells; host or cells: HEK-293T, transient transfection
# T1 sequence (P14867 28-456): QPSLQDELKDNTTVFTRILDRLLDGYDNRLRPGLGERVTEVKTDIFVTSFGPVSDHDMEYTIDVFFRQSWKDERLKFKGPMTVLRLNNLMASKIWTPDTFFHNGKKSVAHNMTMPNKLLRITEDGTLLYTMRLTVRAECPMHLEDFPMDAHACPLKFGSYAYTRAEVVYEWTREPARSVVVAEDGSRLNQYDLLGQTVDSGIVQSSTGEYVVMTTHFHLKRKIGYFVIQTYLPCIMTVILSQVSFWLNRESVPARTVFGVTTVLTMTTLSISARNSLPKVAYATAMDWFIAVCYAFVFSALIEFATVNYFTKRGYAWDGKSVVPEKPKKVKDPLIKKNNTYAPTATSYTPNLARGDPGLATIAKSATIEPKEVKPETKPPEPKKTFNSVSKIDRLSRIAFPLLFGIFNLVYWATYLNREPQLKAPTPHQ
# T1 sequence (P28472 26-473): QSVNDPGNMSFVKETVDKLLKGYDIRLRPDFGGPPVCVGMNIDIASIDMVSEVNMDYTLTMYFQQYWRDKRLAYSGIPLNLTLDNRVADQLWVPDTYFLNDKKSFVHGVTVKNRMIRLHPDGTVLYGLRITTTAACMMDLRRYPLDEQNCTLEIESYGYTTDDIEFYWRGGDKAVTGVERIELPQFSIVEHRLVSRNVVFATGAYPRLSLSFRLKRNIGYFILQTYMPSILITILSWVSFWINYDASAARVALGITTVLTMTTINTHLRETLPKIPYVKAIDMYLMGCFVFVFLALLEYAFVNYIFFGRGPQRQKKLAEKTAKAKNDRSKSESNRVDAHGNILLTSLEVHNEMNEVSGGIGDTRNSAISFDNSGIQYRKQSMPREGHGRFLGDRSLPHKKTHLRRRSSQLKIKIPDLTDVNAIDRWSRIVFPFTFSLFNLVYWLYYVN
# T1 sequence (P18507 40-475): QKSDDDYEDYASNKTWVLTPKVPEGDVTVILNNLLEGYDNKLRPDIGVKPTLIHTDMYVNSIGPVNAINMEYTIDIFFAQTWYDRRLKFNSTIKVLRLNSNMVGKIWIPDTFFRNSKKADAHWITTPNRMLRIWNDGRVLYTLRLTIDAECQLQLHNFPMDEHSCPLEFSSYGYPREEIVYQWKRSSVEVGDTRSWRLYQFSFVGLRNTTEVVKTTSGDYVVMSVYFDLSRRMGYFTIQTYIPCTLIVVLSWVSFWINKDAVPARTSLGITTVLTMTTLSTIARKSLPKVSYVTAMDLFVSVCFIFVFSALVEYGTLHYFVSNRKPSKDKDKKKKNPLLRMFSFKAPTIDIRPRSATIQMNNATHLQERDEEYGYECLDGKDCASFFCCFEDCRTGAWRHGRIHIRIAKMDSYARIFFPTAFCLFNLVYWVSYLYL
# Protocol: The addition of GABA to […] activates the recombinant expressed GABAA receptors, creating an ion movement through the ion channel in the GABAA receptor. The electrical current generated by the movement of chloride ions into the cells can be quantified.
# HEK-293T cells were transiently transfected with rat or human GABAA receptor subunits. Whole-cell patch clamp recording was performed at −50 mV unless otherwise indicated. Test compounds was diluted from a freshly made stock in DMSO, GABA was prepared from a frozen stock. For each experiment GABA or GABA+a test compound was applied for 5 seconds, and the electrical current generated by the movement of chloride ions into the cells was measured and recorded as a trace of current versus time.
# Compounds described herein (e.g., NTP-2014) were tested at high and low GABA concentrations against multiple GABAA receptor isoforms (e.g., α1β3γ2, α2β3 γ2, α3β3γ2, α3β3γ2, α4β3γ2, α5β3γ2, α6β3γ2). […] NTP-2014 inhibits the currents in the parasynaptic α4 GABAA receptor isoform in GABAergic interneurons. […]
# adult mice (C57/B16) = assay: Mesial temporal lobe epilepsy model (mice), hippocampal discharges; assay type: in vivo, mouse; details: 50 mg/kg for NTP-2014 and NTP-2026; 150 mg/kg for NTP-2024, NTP-2006, NTP-1007, NTP-1003
# Protocol: Antiepileptic protocol: Up to eight adult mice (C57/B16) are injected with kainate (1 nmol in 50 nl) and are implanted with a bipolar electrode in the dorsal hippocampus using stereotaxic techniques under general anesthesia. […] Drug conditions are counter-balanced, the animals being used as their own controls. Digital EEG recordings are performed in freely moving animals for 20 min pre-injection and 80 min post-injection. The effects of the injected compound are compared versus vehicle injections and reference period (pre-dose). Upon completion of the experiment, standard histological analysis are performed to verify electrode location, cell losses in CA1, CA3 and hilus, as well as dentate gyrus dispersion. Only animals with all characteristics of MTLE are used in data analysis. […] The results below are normalized to the pre-dose condition for each of the treatment group including DMSO and saline vehicle controls. Doses of test article compounds were 50 mg/kg for NTP-2014 and NTP-2026 and 150 mg/kg for NTP-2024, NTP-2006, NTP-1007, and NTP-1003. Therefore the bumetanide, furosemide, piretanide, azosemide, and torsemide esters and amide analogs described herein may be used in therapeutic methods to treat seizures.
# Na+K+Cl− co-transporter = target: T2, Na+K+Cl− co-transporter (Rattus norvegicus, UniProt E9PTX9); assay: Na+K+Cl− cotransporter assay, 86Rb uptake in A7r5 cells; assay type: cell-based; details: 10 minutes at 37° C.
# T2 construct: endogenous in cells; host or cells: A7r5 cells
# T2 sequence (E9PTX9 1-1203): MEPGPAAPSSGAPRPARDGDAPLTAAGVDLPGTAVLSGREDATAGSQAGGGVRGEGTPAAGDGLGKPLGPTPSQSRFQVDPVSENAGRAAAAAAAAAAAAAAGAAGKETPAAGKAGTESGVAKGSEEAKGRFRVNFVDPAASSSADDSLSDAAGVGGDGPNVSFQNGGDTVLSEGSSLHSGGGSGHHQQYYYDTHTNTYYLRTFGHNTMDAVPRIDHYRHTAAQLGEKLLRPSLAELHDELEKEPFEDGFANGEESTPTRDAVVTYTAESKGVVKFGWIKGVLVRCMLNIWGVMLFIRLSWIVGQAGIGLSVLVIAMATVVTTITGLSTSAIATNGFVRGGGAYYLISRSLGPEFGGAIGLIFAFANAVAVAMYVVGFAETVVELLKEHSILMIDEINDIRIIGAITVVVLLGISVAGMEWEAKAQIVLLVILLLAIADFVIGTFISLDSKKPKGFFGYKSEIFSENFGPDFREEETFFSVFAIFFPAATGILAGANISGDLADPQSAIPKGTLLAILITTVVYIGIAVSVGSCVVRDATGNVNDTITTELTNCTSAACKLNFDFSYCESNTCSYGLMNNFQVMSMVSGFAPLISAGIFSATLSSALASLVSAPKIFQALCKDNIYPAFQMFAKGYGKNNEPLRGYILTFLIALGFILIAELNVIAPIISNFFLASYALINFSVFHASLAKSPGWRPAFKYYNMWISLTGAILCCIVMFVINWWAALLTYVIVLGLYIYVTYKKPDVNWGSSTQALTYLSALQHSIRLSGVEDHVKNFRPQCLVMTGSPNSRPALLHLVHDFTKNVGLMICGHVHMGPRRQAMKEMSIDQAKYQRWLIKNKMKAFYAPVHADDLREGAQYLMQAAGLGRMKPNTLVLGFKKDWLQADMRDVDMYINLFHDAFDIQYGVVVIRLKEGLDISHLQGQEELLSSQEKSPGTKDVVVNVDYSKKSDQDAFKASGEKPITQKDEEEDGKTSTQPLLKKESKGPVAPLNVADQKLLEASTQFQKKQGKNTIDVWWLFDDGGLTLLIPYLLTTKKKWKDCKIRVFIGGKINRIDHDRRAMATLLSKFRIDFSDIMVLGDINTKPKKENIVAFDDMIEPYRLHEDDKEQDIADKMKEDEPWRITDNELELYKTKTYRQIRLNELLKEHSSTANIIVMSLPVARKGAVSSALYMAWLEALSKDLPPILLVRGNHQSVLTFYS
# Protocol: Na^+K^+Cl^− co-transporter activity was measured in vitro in A7r5 cells by measuring their uptake of ^86Rb (0.2 μCi) in 10 minutes at 37° C. as detected by scintillation counting. See Chassande, et al. (1988) “The Na^+/K^+/Cl^− Cotransport in C6 glioma cells. Properties and role in volume regulation.” Eur. J. Biochem. 171: 425433.
# Male Rj: NMRI mice = assay: Formalin paw test (late phase) in the mouse; assay type: in vivo; details: for Anti-inflammatory and analgesic effects in formalin paw test (FIG. 16): 50, 250, 500 μmole/kg
# Protocol: The method described herein detects analgesic/anti-inflammatory activity, generally used to test compounds for pain relief, in particular diabetic neuropathy or nociceptive neuropathy. See Wheeler-Aceto, et al. (1991) Psychopharmacology 104: 35-44.
# Mice were given an intraplantar injection of 5% formalin (25 μl) into the posterior left paw. This treatment induces paw licking in control animals. Mice were briefly observed at 1 minute intervals between 15 and 50 minutes after the injection of formalin and the number of occasions that the mice were observed licking the injected paw was recorded. There were 10 mice per group and the test was performed “blind.”
# The experiment included 11 groups. Data was analyzed by comparing treated groups with vehicle control using unpaired Mann-Whitney U tests.
# Gabapentin (100 mg/kg i.p.) administered under the same experimental conditions, was used as reference substance. The experiment included several groups. Data was analyzed by comparing treated groups with vehicle control using unpaired Mann-Whitney U tests.
# [2] = Blood levels in rat following IP administration; assay type: in vivo
# [3] = Brain levels in rat following IP administration; assay type: in vivo; details: NTP-2006 100 mg/kg IP, PBx pretreated
# [4] = i.p. 30 minutes before the test, 50 μmol/kg (NTP-2006 23.9, NTP-2024 21.7, NTP-1007 19.3, NTP-2014 21, NTP-2026 23.1 mg/kg)
# [5] = i.p., 250 μmol/kg (NTP-2006 119, NTP-2024 108, NTP-1007 96.5, NTP-2014 105, NTP-2026 116 mg/kg)
# [6] = i.p., 500 μmol/kg (NTP-2006 239, NTP-2024 217, NTP-1007 193, NTP-2014 210, NTP-2026 231 mg/kg)
smiles,measurement,setting,value
CN1C(=O)CC(=O)N(c2ccccc2)c2cc(Cl)ccc21 [clobazam],Effect on inhibitory currents in α1 subunit containing GABAA receptors,[1],increase both the amplitude and time course of inhibitory currents
"CCCCNc1cc(C(=O)OCC(=O)N(CC)CC)cc(S(N)(=O)=O)c1Oc1ccccc1 [NTP-2006, N,N-Diethylaminocarbonylmethyl 3-Aminosulfonyl-5-butylamino-4-phenoxybenzoate]",Cumulative duration of hippocampal discharges,adult mice (C57/B16),decreased
same,Number of hippocampal discharges,adult mice (C57/B16),decreased
same,inhibition at 10 µM,Na+K+Cl− co-transporter; read-out: % Inhibition of Control Values,50%
same,remaining activity at 10 µM,Na+K+Cl− co-transporter; read-out: % of Control Value,49.6%
same,Licking Score % Pain Decrease,Male Rj: NMRI mice; 50 μmol/kg i.p.,40.0%
same,Licking Score % Pain Decrease,Male Rj: NMRI mice; 250 μmol/kg i.p.,61%
same,Licking Score % Pain Decrease,Male Rj: NMRI mice; 500 μmol/kg i.p.,60%
same,Anti-inflammatory and analgesic effects in formalin paw test (FIG. 16),Male Rj: NMRI mice,show anti-inflammatory and analgesic effects
same,Licking Score (15 to 50 minutes post-formalin injection) % Change from Control,Male Rj: NMRI mice; [4],−40%
same,Licking Score (15 to 50 minutes post-formalin injection) % Change from Control,Male Rj: NMRI mice; [5],−61%
same,Licking Score (15 to 50 minutes post-formalin injection) % Change from Control,Male Rj: NMRI mice; [6],−60%
same,Concentration of NTP-2006 in rat blood,"[2]; NTP-2006 100 mg/kg IP, PBx pretreated, 15 m",2.008 ng/mL and 1.728 ng/mL
same,Concentration of NTP-2006 in rat blood,"[2]; NTP-2006 100 mg/kg IP, PBx pretreated, 1 h",BLQ (Below Limit of Quantitation (<1 ng/ml))
same,Concentration of NTP-2006 in rat blood,"[2]; NTP-2006 100 mg/kg IP, PBx pretreated, 2 h",BLQ (Below Limit of Quantitation (<1 ng/ml))
same,Concentration of NTP-2006 in rat blood,"[2]; NTP-2006 100 mg/kg IP, PBx pretreated, 4 h",BLQ (Below Limit of Quantitation (<1 ng/ml))
same,Concentration of NTP-2006 in rat blood,"[2]; NTP-2006 100 mg/kg IP, PBx pretreated, 6 h",BLQ (Below Limit of Quantitation (<1 ng/ml))
same,Degradation to bumetanide in the blood,"[2]; i.p., rats",degrades into bumetanide
same,concentration at 15 min,"[2]; rat, whole blood, intraperitoneal, 100 mg/kg, NTP-2006 100 mg/kg IP, PBx pretreated, 15 m",3.32 ng/mL
same,concentration at 30 min,"[2]; rat, whole blood, intraperitoneal, 100 mg/kg, NTP-2006 100 mg/kg IP, PBx pretreated, 30 m",3.35 ng/mL
same,Concentration of NTP-2006 in rat brain,[3]; 15 m,5.259 ng/mL and 2.937 ng/mL
same,Concentration of NTP-2006 in rat brain,[3]; 6 h,1.523 ng/mL and 1.572 ng/mL
same,concentration at 15 min,"[3]; rat, brain, intraperitoneal, 100 mg/kg, 15 m",2.95 ng/mL
same,concentration at 6 h,"[3]; rat, brain, intraperitoneal, 100 mg/kg, 6 h",1.88 ng/mL
Cc1ccc(-c2nc3ccc(C)cn3c2CC(=O)N(C)C)cc1 [zolpidem],Effect on inhibitory currents in α1 subunit containing GABAA receptors,[1],increase both the amplitude and time course of inhibitory currents
"CCN(CC)C(=O)c1cc(S(N)(=O)=O)c(Cl)cc1NCc1ccco1 [NTP-1007, N,N-Diethyl 5-Aminosulfonyl-4-chloro-2-[(2-furanylmethyl)amino]benzamide]",Cumulative duration of hippocampal discharges,adult mice (C57/B16),decreased
same,Number of hippocampal discharges,adult mice (C57/B16),decreased
same,Licking Score % Pain Decrease,Male Rj: NMRI mice; 50 μmol/kg i.p.,9%
same,Licking Score % Pain Decrease,Male Rj: NMRI mice; 250 μmol/kg i.p.,13%
same,Licking Score % Pain Decrease,Male Rj: NMRI mice; 500 μmol/kg i.p.,66%
same,Anti-inflammatory and analgesic effects in formalin paw test (FIG. 16),Male Rj: NMRI mice,show anti-inflammatory and analgesic effects
same,Licking Score (15 to 50 minutes post-formalin injection) % Change from Control,Male Rj: NMRI mice; [4],−9%
same,Licking Score (15 to 50 minutes post-formalin injection) % Change from Control,Male Rj: NMRI mice; [5],−13%
same,Licking Score (15 to 50 minutes post-formalin injection) % Change from Control,Male Rj: NMRI mice; [6],−66%
CN1C(=O)CN=C(c2ccccc2)c2cc(Cl)ccc21 [diazepam],Effect on inhibitory currents in α1 subunit containing GABAA receptors,[1],increase both the amplitude and time course of inhibitory currents
